Assay results from patent publication US6984649B1, “Pyridine derivatives” (Bayer Aktiengesellschaft, priority 2000, dated 2006).
Where a name gives a salt, the structure may show the parent alone.

Biological target: T1, human IKK-β (Homo sapiens, UniProt O14920)
T1 construct: A cDNA fragment encoding human IKK-β open reading frame was generated by PCR; His tag (from pcDNA3.1/His C); made in house; host or cells: Sf21 insect cells (baculovirus); substrate made in E. coli
T1 sequence (O14920 1-756): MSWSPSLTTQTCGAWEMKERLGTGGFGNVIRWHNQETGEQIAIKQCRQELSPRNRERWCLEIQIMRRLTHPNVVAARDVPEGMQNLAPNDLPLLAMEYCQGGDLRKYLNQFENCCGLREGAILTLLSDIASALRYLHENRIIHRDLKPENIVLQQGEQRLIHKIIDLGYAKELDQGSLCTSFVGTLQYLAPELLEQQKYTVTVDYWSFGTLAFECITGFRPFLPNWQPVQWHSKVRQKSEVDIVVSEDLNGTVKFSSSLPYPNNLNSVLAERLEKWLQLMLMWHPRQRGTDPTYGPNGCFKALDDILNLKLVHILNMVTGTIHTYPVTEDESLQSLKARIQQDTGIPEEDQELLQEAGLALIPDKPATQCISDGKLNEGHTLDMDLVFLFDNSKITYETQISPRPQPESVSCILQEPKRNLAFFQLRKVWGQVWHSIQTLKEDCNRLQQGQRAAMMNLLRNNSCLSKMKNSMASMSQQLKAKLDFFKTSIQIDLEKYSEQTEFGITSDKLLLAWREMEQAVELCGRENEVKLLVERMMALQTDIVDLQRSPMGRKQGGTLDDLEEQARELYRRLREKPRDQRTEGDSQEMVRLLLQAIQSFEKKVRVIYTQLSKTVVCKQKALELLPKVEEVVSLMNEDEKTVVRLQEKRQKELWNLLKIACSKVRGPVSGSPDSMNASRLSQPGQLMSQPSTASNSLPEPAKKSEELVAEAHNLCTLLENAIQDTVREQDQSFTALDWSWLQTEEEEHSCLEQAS
Assay: IKK-β kinase inhibitory assay
Type: biochemical
Conditions: compounds as yielded by solid phase synthesis, purity about 40 to 90%, read-out: In vitro activity grade (In vitro IC50)
Excerpt: [IKK-β Kinase Inhibitory Assay]
(1) Preparation of IKK-β Kinase Protein.
• A cDNA fragment encoding human IKK-β open reading frame was generated by PCR with the use of a pair of primers designed from the published sequence (Woronicz J D et al. (1997) Science 278, 866-869). A template was obtained from Quickclone cDNA (Clontech) using Elongase™ Amplification kit (Life Technologies). The DNA fragments generated by PCR were gel-purified and subcloned into pBluescript. The cDNA fragment cloned in pBluescript was inserted into pcDNA3.1/His C KpnI/NotI, and transferred into pVL1393 SmaI/XbaI (Pharmingen) to construct a baculovirus transfer vector. Then the vector, together with the linearized baculovirus (BaculoGold™, Pharmingen) was used to transfect Sf21 cells (Invitrogen, San Diego, Calif.). Generated recombinant baculovirus was cloned and amplified in Sf21 cells, grown in TNM-FH insect cell medium (Life Technologies, Inc.) supplemented with 10% FCS, […] Gentamycin, 0.1% Pluronic F-68 (Life Technologies, Inc.) as suspension culture (200 ml in 1 L Erlenmeyer flask; 27° C.; 130 rpm). Sf21 cells were infected with this amplified virus with a multiplicity of infection of 5 following standard protocols (Crossen R, Gruenwald S (1997) Baculovirus Expression Vector System Instruction Manual, Pharmingen Corporation) and harvested 48 hrs later. The cells were lysed to obtain the produced chimeric protein of IKK-β kinase fused by histidine (His-tagged IKK-beta). (2) The Preparation of Purified GST-IκBα Fusion Proteins • An expression vector containing the nucleotide sequence encoding fusion protein of GST with amino acid residues 1 to 54 of IκBα under the control of an IPTG-inducible promoter was constructed. The expression vector was introduced in E. coli and the transformant was cultured and lysed to obtain a GST-IκBα fusion protein. Then the resulting GST-IκBα fusion protein was purified and biotinated for kinase assay. (3) The Measurement of IKK-β Kinase Activity • The 96-well format kinase assay of IKK-β were performed to test the inhibitory activity of the compounds of the present invention. First, 5 μl of a test compound was put in the presence of 2.5% dimethyl sulfoxide (DMSO) in each well in a U-bottomed 96-well plate (Falcon). For control wells of background (BG) and total phosphorylation (TP), 5 μl of 2.5% DMSO was put. Recombinant IKK-β (final 0.6 μg/ml) and bio-GST-IκBα (1-54) (final 0.2 μM) were diluted in 25 μl of 2×kinase buffer β (40 mM Tris-HCl, pH 7.6, 40 mM MgCl2, 40 mM β-glycerophosphate, 40 mM p-nitrophenylphosphate, 2 mM EDTA, 40 mM creatine phosphate, 2 mM DTT, 2 mM Na3VO4, 0.2 mg/ml BSA and 0.8 mM phenylmethylsulfonyl fluoride) and transferred to the 96-well plate. Bio-GST-IκBα (1-54) in 25 μl of 2×kinase buffer β without IKK-β was transferred to BG wells. Then 20 μl of 12.5 μM ATP, 62.5 μCi/ml [γ-^33P] ATP (Amersham Pharmacia Biotech) was added and the resulting mixture was incubated for 2 hrs at room temperature. The kinase reactions were terminated by the addition of 150 μl of termination buffer (100 mM EDTA, 1 mg/ml BSA, 0.2 mg NaN3). One hundred and fifty μl of the sample were transferred to a streptavidin-coated, white MTP (Steffens Biotechniche Analysen GmbH #08114E14.FWD) to capture the biotinylated substrates. After 1 hr of incubation, non-bound radioactivity was eliminated by washing the wells five times with 300 μl of washing buffer including 0.9% NaCl and 0.1% (w/v) Tween-20 with the use of a MW-96 plate washer (BioTec). The bound radioactivity was determined after the addition of 170 μl MicroScint-PS scintillation cocktail (Packard) using a TopCount scintillation counter. [Syk Tyrosine Kinase Inhibitory Assay for Selectivity] (1) Preparation of Syk Protein • A cDNA fragment encoding human Syk openreading frame was cloned from total RNA of human Burkitt's lymphoma B cell lines, Raji (American Type Culture Collection), with the use of RT-PCR method.

Which IC50 does the source give for `CNC(=O)c1c(C2CCCNC2)cc(-c2ccccc2O)nc1N` (stereo not shown) [Example 8-2, 2-amino-6-(2-hydroxyphenyl)-N-methyl-4-(3-piperidinyl)nicotinamide hydrochloride] here?
The IC50 was 500 to 2000 nM.

With `CNC(=O)c1c(C2CCCNC2)cc(-c2c(O)cccc2OCC2CC2)nc1N` (stereo not shown) [Example 8-3, 2-amino-6-[2-(cyclopropylmethoxy)-6-hydroxyphenyl]-N-methyl-4-(3-piperidinyl)nicotinamide hydrochloride] as the compound, how does the IC50 read?
The IC50 was less than 500 nM.

How did the IC50 turn out when `CC(C)(C)OC(=O)c1c(C2CCCNC2)cc(-c2ccccc2O)nc1N` (stereo not shown) [Example 9-1, tert-butyl 2-amino-6-(2-hydroxyphenyl)-4-(3-piperidinyl)nicotinate hydrochloride] was run?
Its IC50 is less than 500 nM.

`Nc1nc(-c2ccccc2O)cc(C2CCCNC2)c1C(=O)O` (stereo not shown) [Example 9-2, 2-amino-6-(2-hydroxyphenyl)-4-(3-piperidinyl)nicotinic acid hydrochloride] was tested. Which IC50 did it give?
Its IC50 is less than 500 nM.

For `Nc1nc(-c2c(O)cccc2OCC2CC2)cc(C2CCCNC2)c1C(=O)O` (stereo not shown) [Example 9-3, 2-amino-6-[2-(cyclopropylmethoxy)-6-hydroxyphenyl]-4-(3-piperidinyl)nicotinic acid hydrochloride], which IC50 is on record?
The IC50 was less than 500 nM.

How did the IC50 turn out when `Cn1c(=O)[nH]c2nc(-c3ccccc3O)cc(C3CCCNC3)c2c1=O` (stereo not shown) [Example 10-1, 7-(2-hydroxy-phenyl)-3-methyl-5-piperidin-3-yl-1H-pyrido[2,3-d]pyrimidine-2,4-dione hydrochloride] was run?
The IC50 was less than 500 nM.

`Nc1nc(-c2ccccc2O)cc(C2CCCNC2)c1CO` (stereo not shown) [Example 11-1, 2-[6-amino-5-(hydroxymethyl)-4-(3-piperidinyl)-2-pyridinyl]phenol hydrochloride] was tested. Which IC50 did it give?
The IC50 was less than 500 nM.

For `Nc1nc(-c2c(O)cccc2F)cc(C2CCCNC2)c1CO` (stereo not shown) [Example 11-2, 2-[6-amino-5-(hydroxymethyl)-4-(3-piperidinyl)-2-pyridinyl]-3-fluorophenol hydrochloride], which IC50 is on record?
Its IC50 is less than 500 nM.

With `Nc1nc(-c2ncccc2O)cc(C2CCCNC2)c1CO` (stereo not shown) [Example 11-3, 6′-amino-5′-(hydroxymethyl)-4′-3-piperidinyl)-2,2′-bipyridin-3-ol hydrochloride] as the compound, how does the IC50 read?
Its IC50 is less than 500 nM.

For `Nc1nc(-c2ccccc2O)cc(C2=CCCNC2)c1CO` [Example 11-4, 2-[6′-amino-5′-(hydroxymethyl)-1,2,5,6-tetrahydro-3,4′-bipyridin-2′-yl]phenol hydrochloride], which IC50 is on record?
The IC50 was less than 500 nM.

For `Nc1nc(-c2c(O)cccc2OCC2CC2)cc(C2CCCNC2)c1CO` (stereo not shown) [Example 12-1, 2-[6-amino-5-(hydroxymethyl)-4-(3-piperidinyl)-2-pyridinyl]-3-(cyclopropylmethoxy)phenol hydrochloride], which IC50 is on record?
Its IC50 is less than 500 nM.

For `COCc1c(C2CCCNC2)cc(-c2ccccc2O)nc1N` (stereo not shown) [Example 13-1, 2-[6-amino-5-(methoxymethyl)-4-(3-piperidinyl)-2-pyridinyl]phenol hydrochloride], which IC50 is on record?
Its IC50 is less than 500 nM.

With `CC(O)c1c(C2CCCNC2)cc(-c2ccccc2O)nc1N` (stereo not shown) [Example 15-1, 2-[6-amino-5-(1-hydroxyethyl)-4-(3-piperidinyl)-2-pyridinyl]phenol hydrochloride] as the compound, how does the IC50 read?
The IC50 was less than 500 nM.

Which IC50 does the source give for `Nc1nc(-c2ccccc2O)cc(C2CCCNC2)c1C(O)c1ccccc1` (stereo not shown) [Example 15-2, 2-[6-amino-5-[hydroxy(phenyl)methyl]-4-(3-piperidinyl)-2-pyridinyl]phenol hydrochloride] here?
The IC50 was less than 500 nM.

Which IC50 does the source give for `CC(=O)c1c(C2CCCNC2)cc(-c2ccccc2O)nc1N` (stereo not shown) [Example 15-3, 1-[2-amino-6-(2-hydroxyphenyl)4-(3-piperidinyl)-3-pyridinyl]ethanone hydrochloride] here?
The IC50 was less than 500 nM.

With `Oc1ccccc1-c1cc(C2CCCNC2)c2cn[nH]c2n1` (stereo not shown) [Example 16-1, 2-(4-Piperidin-3-yl-1H-pyrazolo[3,4-b]pyridin-6-yl)-phenol hydrochloride] as the compound, how does the IC50 read?
The IC50 was 500 to 2000 nM.

For `Oc1cccc(OCC2CC2)c1-c1cc(C2CCCNC2)c2c(n1)NCOC2` (stereo not shown) [Example 17-1, 3-(cyclopropylmethoxy)-2-[5-(3-piperidinyl)-1,4-dihydro-2H-pyrido[2,3-d][1,3]oxazin-7-yl]-phenol hydrochloride], which IC50 is on record?
Its IC50 is less than 500 nM.

How did the IC50 turn out when `CC1OC(=O)Nc2nc(-c3ccccc3O)cc(C3CCCNC3)c21` (stereo not shown) [Example 18-3, hydrochloride] was run?
The IC50 was 500 to 2000 nM.

`NC(Cc1ccccc1)c1cc(-c2ccccc2O)nc2c1COC(=O)N2` (stereo not shown) [Example 18-4/18-5, 5-(1-Amino-2-phenyl-ethyl)-7-(2-hydroxy-phenyl)-1,4-dihydro-pyrido[2,3-d][1,3]oxazin-2-one hydrochloride] was tested. Which IC50 did it give?
The IC50 was less than 500 nM.

How did the IC50 turn out when `O=C1Nc2nc(-c3ccccc3O)cc(C3=CCCNC3)c2CO1` [Example 18-6] was run?
Its IC50 is less than 500 nM.

For `Nc1nc(-c2c(O)cccc2OCc2ccccc2)cc2c1CN1CCCC2C1` (stereo not shown) [Example 20-1, 2-(6-amino-5,9-diazatricyclo[7.3.1.02,7]trideca-2,4,6-trien-4-yl)-3-(benzyloxy)phenol hydrochloride], which IC50 is on record?
Its IC50 is 500 to 2000 nM.

How did the IC50 turn out when `Nc1nc(-c2ccccc2O)cc2c1CN[C@@H]2Cc1ccccc1` [Example 20-2, 2-[(1R)-4-amino-1-benzyl-2,3-dihydro-1H-pyrrolo[3,4-d]pyridin-6-yl]phenol hydrochloride] was run?
Its IC50 is less than 500 nM.

Which IC50 does the source give for `Nc1nc(-c2c(O)cccc2OCC2CC2)cc(C2CCCNC2)c1CSc1ccccc1` (stereo not shown) [Example 21-1, 2-[6-amino-5-[(phenylsulfanyl)methyl]-4-(3-piperidinyl)-2-pyridinyl]-3-(cyclopropylmethoxy)phenol hydrochloride] here?
The IC50 was less than 500 nM.

`Nc1nc(-c2c(O)cccc2OCC2CC2)cc(C2CCNCC2)c1Cn1ccnc1` [Example 21-2, 2-[6-amino-5-(1H-imidazol-1-ylmethyl)-4-(4-piperidinyl)-2-pyridinyl]-3-(cyclopropylmethoxy)phenol hydrochloride] was tested. Which IC50 did it give?
The IC50 was less than 500 nM.

With `Nc1nc(-c2c(O)cccc2OCC2CC2)cc(C2CCNCC2)c1COc1ccccc1` [Example 21-3, 2-[6-amino-5-(phenoxymethyl)-4-(4-piperidinyl)-2-pyridinyl]-3-(cyclopropylmethoxy)phenol hydrochloride] as the compound, how does the IC50 read?
The IC50 was less than 500 nM.
